Test results reported in patent publication US20040229837A1, “Treatment of neurodegenerative diseases” (priority 2003, published 2004).

How the values were obtained:
R6/2 mice [1] = assay: Number of glia by Nissl staining, R6/2 mice; format: in vivo; settings: chronic CGS treatment
Method: (§1) Animals were deeply anesthetized with sodium pentobarbital (100 ug/g), and intracardially perfused with 4% paraformaldehyde in 0.1 M phosphate buffer (PB, pH 7.4). Brains were carefully removed, post-fixed with 4% paraformaldehyde/0. 1 M PB for 2-5 h, and then immersed in 30% glycerol in 0.1 M PB. Tissues were cut at 20 um on a freezing microtome (CM3050, Leica Microsystems Nussloch GmbH, Nussloch, Germany).
(§2) Serial-cut coronal tissue sections from the rostral segment of the neostriatum to the level of the anterior commissure (interaural 5.34 mm/bregma 1.54 mm to interaural 3.7 mm/bregma -0.1 mm) were used to define atrophy of the striatum and enlargement of the lateral ventricles. Total areas of the striatum or the lateral ventricles were measured using the software, NIH Image 1.62. Nissl- and GFAP-stained sections were quantified by counting the corresponding types of cells in defined areas of photomicrographs taken using a microscope in phase contrast.
Alternatively, elevated choline content may reflect a change in cell types. […] The number of glia was determined using the Nissl staining technique. […] The number of astrocytes, the most numerous of glial cells, was also assessed by staining the brain sections using an antibody against an astrocytic marker (glial fibrillary acidic protein, GFAP). […]

R6/2 mice [2] = assay: Number of activated (GFAP-positive) astrocytes by immunohistochemistry, R6/2 mice; format: in vivo
Method: as §1
Single antigen immunohistochemistry was carried out by the avidin-biotin-peroxidase complex method as previously described (Liu et al. (1998) FEBS Lett. 436:92-98). […] The pattern of double immunostaining was analyzed with the aid of a laser confocal microscope (Bio-Rad, MRC-1000, Hercules, Calif., USA).
as §2, with “contrast. […]” for “contrast.”

R6/2 mice [3] = assay: Motor coordination assessed by rotarod performance of R6/2 mice; format: in vivo; settings: CGS treatment
wild-type mice [4] = assay: Number of activated astrocytes, wild-type mice; format: in vivo; settings: chronic CGS treatment
Method: Single antigen immunohistochemistry was carried out by the avidin-biotin-peroxidase complex method as previously described (Liu et al. (1998) FEBS Lett. 436:92-98). In brief, free-floating sections were incubated in the polyclonal anti-GFAP antiserum (1 :1000 dilution, Sigma, St. Louis, Mo., USA) at 4° C. for 36-48 h followed by a biotinconjugated goat anti-rabbit IgG (1:500, Vector Laboratories, Burlingame, Calif., USA) for 2 h, and then with an avidin-biotin-peroxidase complex for 2 h with three rinses of 0.1 M PB in between. Sections were incubated in 0.1 M PB containing 0.02% DAB and 0.08% nickel ammonium sulfate. Immunostaining was developed by adding H2O2 to a final concentration of 0.0024%. […] The pattern of double immunostaining was analyzed with the aid of a laser confocal microscope (Bio-Rad, MRC-1000, Hercules, Calif., USA).
as §2, with “contrast. […]” for “contrast.”

wild-type mice [5] = assay: Choline/creatine levels after chronic CGS, wild-type mice; format: in vivo; settings: chronic IP-administration of CGS
Method: Animals were anesthetized using chloral hydrate (4.088 mg/10 g, i.p. injection). Measurements were performed on a Biospec 4.7 T spectrometer with an active shielding gradient at 6.9 G/cm in 500 us. Mice were placed in a prone position with a custom-designed head-holder. A 20-cm birdcage coil was used for RF excitation, and a 2-cm-diameter surface coil placed directly over the head was used for signal receiving. The volume of interest (VOI) for ^1H-MRS measurements over the striatum was selected on the basis of coronal diffusion-weighted image using a pulse gradient spin-echo diffusion method with a repetition time (TR) of 1500 ms, an echo time (TE) of 62 ms, a field of view of 3 cm×3 cm, a slice thickness of 1 mm, a b value of 1300 s/mm^2, number averages of 2, a 256 -128 matrix size zero filled to 256 -156. The diffusion-sensitive gradients were applied in the read (×) direction before and after the refocusing pulse. Point-resolved spectroscopy (PRESS) sequence, preceded by three consecutive chemical shift selective saturation (CHESS) pulses for water suppression, was used for localized spectroscopy with a 3.5 ×3.5 ×3.5 mm^3voxel located in the striatum region, a spectral width (sw) of 4000 Hz, a TR of 3.5 s, a TE of 136 ms, signal averages of 256, and total scanning time of 8 min 32 sec. The peak areas of NAA, choline (Cho), and creatine (Cr), were recognized. […]

rats = settings: low dosage, Popoli et al. (2002); cited from earlier work
R6/2 mice [6] = assay: Locomotor activity of R6/2 mice; format: in vivo; settings: ZM241385 7.5 ug/g given with CGS

CCNC(=O)[C@H]1O[C@@H](n2cnc3c(N)nc(NCCc4ccc(CCC(=O)O)cc4)nc32)[C@H](O)[C@@H]1O [CGS]
number of glial cells (R6/2 mice [1]): did not affect
enhancement of the number of activated astrocytes (R6/2 mice [2]; R6/2 mice, chronic CGS treatment, in the striatum and in the cortex): 8 fold
motor coordination assessed by rotarod performance (R6/2 mice [3]): not affected
number of activated astrocytes (wild-type mice [4]): not affected
changes in choline/creatine levels (wild-type mice [5]): no detectable changes

Nc1nc2c(cnn2CCc2ccccc2)c2nc(-c3ccco3)nn12 [SCH58261]
QA-induced excitotoxicity (rats): reduced QA-induced excitotoxicity

Nc1nc(NCCc2ccc(O)cc2)nc2nc(-c3ccco3)nn12 [ZM241385]
number of activated astrocytes in the striatum (R6/2 mice [2]; R6/2 mice treated with ZM and CGS simultaneously, n=4): 43±8 /mm^2
ameliorating effect of CGS on locomotor activity, blockade by antagonist (R6/2 mice [6]): could be blocked
